Data as given in patent US20240016850A1, “CELL-NANOPARTICLE DRUG DELIVERY SYSTEM AND USE OF THE SAME FOR INHIBITING GROWTH OF TUMOR CELLS AND DIAGNOSING TUMOR CELLS” (priority 2022, published 2024).

What was measured:
[1] = Gd3+ release from gadodiamide and Gd-FPFNP (dialysis, Xylenol orange); type: physicochemical; conditions: 24th hour; 1.05 mM gadodiamide; PBS, 37° C.
Experimental: In order to monitor the in vitro release of gadolinium(III) ions (Gd^3+) from gadodiamide and Gd-FPFNP, a respective one of gadodiamide at concentration of 1.05 mM and Gd-FPFNP that was loaded with 1.05 mM of gadodiamide were incubated in DMEM, and then added into a dialysis tube with cellulose membrane having a molecular weight cutoff of 1 kDa, followed by immersing the dialysis tube in 10 mL of PBS and stirring at 37° C. Thereafter, 0.5 mL aliquots of the PBS were taken out at the 3rd hour and 24th hour of stirring, followed by addition of Xylenol orange agent and analysis using a UV-Vis detector conducted according to procedures described by Barge A. et al., in an article entitled “How to determine free Gd and free ligand in solution of Gd chelates. A technical note.” published in Contrast Media Mol. Imaging, 2006, Vol. 1, p. 184-188, so as to determine the amount of Gd^3+ released in vitro.

[2] = Biodistribution in vital organs with different treatment regimens (ICP-MS); type: in vivo, rat; conditions: 24th hour post-administration
Description: In order to determine the differences in biodistribution of the cell-nanoparticle drug delivery system with those of gadodiamide and Gd-FPFNP in vital organs, the orthotopic GBM-bearing rats prepared in section B above were divided into 4 groups, namely, comparative groups 1 and 2 (CG1 and CG2), and experimental groups 1 and 2 (EG1 and EG2), with n=4 per each group. […] At the 24th hour post-administration, the orthotopic GBM-bearing rats in each group were sacrificed, and the blood and tissues from the heart, liver, spleen, lung, kidney, intestine, left brain and right brain were subjected to the pre-processing steps as described in section E above, and then subjected to quantification of elemental gadolinium (Gd) content by ICP-MS system as described in Item 5 of section B in Example 1. The results were expressed as percentage of administered (injected) dose per gram tissue (ID/g), calculated using the aforesaid formula (3), and shown in FIG. 16.

concentration of Gd3+ released [1]: 38.6 µM
elemental gadolinium in vital organs [2]: not or hardly detected
SMILES: CNC(=O)CN(CCN(CCN(CC(=O)[O-])CC(=O)NC)CC(=O)[O-])CC(=O)[O-].[Gd+3] [gadodiamide, Gadodiamide]
